The values below come from patent US7109185B2, “Pharmaceutical formulations comprising indolinone derivatives” (Sugen, Inc., priority 2001, dated 2006).

Data set [1] in a line: Plasma Stability Test: conversion of prodrug to drug after IV administration to dogs, HPLC analysis of blood plasma. In kind it is in vivo. The settings on record: IV at 2 mg/mL, blood plasma followed for 4 hours. As to the method: The prodrug (3Z)-3-[(3,5-dimethyl-1H-pyrrol-2-yl)-methylidene]-1-(1-pyrrolidinylmethyl)-1,3-dihydro-2H-indol-2-one was administered IV at 2 mg/mL to dogs. Levels of both prodrug and drug (3(Z)-3-[(3,5-dimethyl-1H-pyrrol-2-yl)-methylidene]-1,3-dihydro-2H-indol-2-one) were followed by HPLC analysis of blood plasma for 4 hours following dosing.

Data set [2] in a line: Hydrolysis (pH stability profile) at pH 7.2 and 7.6. The format is physicochemical. The settings on record: for half-life: buffer, read-out: Half life, t1/2 (hydrolysis). The text has this: (3Z)-3-[(3,5-Dimethyl-1H-pyrrol-2-yl)-methylidene]-1-(1-pyrrolidinylmethyl)-1,3-dihydro-2H-indol-2-one is a Mannich base and is designed to hydrolyse to 3-(3,5-dimethyl-1H-pyrrol-2-ylmethylene)-1,3-dihydro-indol-2-one at physiological pH. The stability of (3Z)-3-[(3,5-dimethyl-1H-pyrrol-2-yl)-methylidene]-1-(1-pyrrolidinylmethyl)-1,3-dihydro-2H-indol-2-one is higher at a lower pH. […] The pH stability profile of (3Z)-3-[(3,5-dimethyl-1H-pyrrol-2-yl)-methylidene]-1-(1-pyrrolidinylmethyl)-1,3-dihydro-2H-indol-2-one at pH 7.2 and pH 7.6 is tabulated in table 1.

Data set [3] deals with vascular endothelial growth factor receptor (Flk-1/KDR). The settings on record: Fong et al. (1999) Cancer Res. 59:99–106; cited from earlier work.

Take `CC(=O)OC(C)N1C(=O)/C(=C\c2[nH]c(C)cc2C)c2ccccc21` (stereo not shown) [Example 4, 1-{(3Z)-3-[(3,5-dimethyl-1H-pyrrol-2-yl)-methylidene]-2-oxo-2,3-dihydro-1H-indol-1-yl}ethyl acetate]: the melting point was 107 to 110 °C.
With `Cc1cc(C)c(/C=C2\C(=O)N(CN3CCCC3)c3ccccc32)[nH]1` [Example 14, (3Z)-3-[(3,5-dimethyl-1H-pyrrol-2-yl)-methylidene]-1-(1-pyrrolidinylmethyl)-1,3-dihydro-2H-indol-2-one], the melting point is 129 to 132 °C. In addition, the “prodrug converted into drug (area under the curve of drug concentration vs time)” value in data set [1] was 80%. For the same molecule, in data set [1] (dog), the half-life was 7.3 min. Moreover, in data set [2] (pH 7.2), the half-life was 6.2 min. For the same molecule, the half-life in data set [2] (pH 7.6) came to 6 min. In addition, in data set [2] (physiological pH), the “hydrolysis to 3-(3,5-dimethyl-1H-pyrrol-2-ylmethylene)-1,3-dihydro-indol-2-one” value is “rapidly hydrolyses”.
In the case of `Cc1cc(C)c(/C=C2\C(=O)N(CO)c3ccccc32)[nH]1` [Example 1, (3Z)-3-[(3,5-dimethyl-1H-pyrrol-2-yl)-methylidene]-1-(hydroxymethyl)-1,3-dihydro-2H-indol-2-one], the melting point was 200 to 202 °C.
In the case of `Cc1cc(C)c(/C=C2\C(=O)N(COC(=O)CCC(=O)O)c3ccccc32)[nH]1` [Example 3, 4-({(3Z)-3-[(3,5-dimethyl-1H-pyrrol-2-yl)-methylidene]-2-oxo-2,3-dihydro-1H-indol-1-yl}methoxy)-4-oxobutanoic acid], the melting point is 160 to 162 °C.
For the molecule `Cc1cc(C)c(C=C2C(=O)Nc3ccccc32)[nH]1` [3-(3,5-dimethyl-1H-pyrrol-2-ylmethylene)-1,3-dihydro-indol-2-one], the “inhibition of the vascular endothelial growth factor receptor (Flk-1/KDR)” value in data set [3] is listed as “highly active selective inhibitor”.

The term melting point denotes the temperature, or range, at which the solid turns liquid.
